Patent US12624019B2, “Indazole derivative, and preparation method therefor and use thereof” (Leadingtac Pharmaceutical (Shaoxing) Co., Ltd., priority 2020, dated 2026)

What was measured:
Assay type in all cases: cell-based
IKZF1 = molecular target: T1, IKZF1 (Homo sapiens, UniProt Q13422+Q96SW2); assay: Degradation of IKZF1 in L363 cells by Western blot; settings: compound 1000 nM, 16 hours
T1 construct: endogenous in cells; host or cells: L363 cells
Protocol: (§1) The 24-well cell culture plate was inoculated with 0.95 mL L363 cells (Nanjing Co-bioer) per well with a cell density of 6×10^5 cells/well. The cell plate was placed in a 5% carbon dioxide incubator and cultured at 37° C. for 8 hours, then 50 μL of compound solution was added. The final concentration of the compound was 1000 nM. After continuing to culture for 16 hours, the cells were collected into a 1.5 mL centrifuge tube and centrifuged at 3000 rpm and 4° C. for 5 minutes. Cell precipitation was washed twice with 1×DPBS, resuspended cells were lysed with 100 μL lysate (cell lysate was Western and IP cell lysate (Beyotime), supplemented with 1 mM mixture of phenylmethylsulfonyl fluoride and protease inhibitor (Beyotime)), left on ice for 30 minutes, then centrifuged at 14000 g at 4° C. for 10 minutes, and the supernatant was taken to detect IKZF1 and IKZF3 protein level by Western blot.
(§2) The total protein concentration in the supernatant of cell lysis was determined by BCA protein quantitative kit (Tiangen). According to the concentration of total protein detected by BCA, the supernatant was adjusted to […] with PBS and 5×SDS-PAGE protein loading buffer (Beyotime), bathed in water at 100° C. for 10 minutes, then placed in ice bath for 5 minutes, centrifuged at 14000 g and 4° C. for 5 minutes, and then collected as WB loading sample. Prefabricated glue (KeyGEN) was used for protein electrophoresis with a loading amount of 10 μL (total protein 2 μg). After Tris-MOPS-SDS electrophoresis solution (Adamas), 120V constant pressure electrophoresis was performed. After electrophoresis, the protein on the adhesive strip was transferred to PVDF membrane with a constant current of […] for 50 minutes. After the membrane was transferred, the membrane was incubated in 5% bovine serum albumin solution for 2 hours at room temperature. After blocking, PVDF membranes were incubated with IKZF1 primary antibody (CST) and IKZF3 primary antibody (Abcam) overnight at 4°, the membranes were washed with TBST buffer (2.4 g Tris, 8.8 g NaCl, 1.5 mL Tween 20, pH adjusted to 7.4, constant volume to 1 L) for 30 minutes, incubated with secondary antibody (Abcam) for 2 hours at room temperature, finally incubated with Clarity Western ECL Substrate (BIO-RAD) for 5 minutes for luminescence development, chemiluminescence imaging system (Clinx, chemiScope 6200 Touch) was used for development and protein mapping photography. The protein map was analyzed by Clinx chemiluminescence analysis software for grayscale values. Using the formula: grayscale correction value=(target protein grayscale value/corresponding internal reference grayscale value)×10^3, the grayscale correction value of each sample was calculated. The degradation rate was calculated by comparing with the grayscale correction value of the control group.

IKZF3 = molecular target: T2, IKZF3 (Homo sapiens, UniProt Q96SW2+Q9UKT9); assay: Degradation of IKZF3 in L363 cells by Western blot; settings: compound 1000 nM, 16 hours
T2 construct: endogenous in cells; host or cells: L363 cells
T2 sequence (Q9UKT9 whole entry): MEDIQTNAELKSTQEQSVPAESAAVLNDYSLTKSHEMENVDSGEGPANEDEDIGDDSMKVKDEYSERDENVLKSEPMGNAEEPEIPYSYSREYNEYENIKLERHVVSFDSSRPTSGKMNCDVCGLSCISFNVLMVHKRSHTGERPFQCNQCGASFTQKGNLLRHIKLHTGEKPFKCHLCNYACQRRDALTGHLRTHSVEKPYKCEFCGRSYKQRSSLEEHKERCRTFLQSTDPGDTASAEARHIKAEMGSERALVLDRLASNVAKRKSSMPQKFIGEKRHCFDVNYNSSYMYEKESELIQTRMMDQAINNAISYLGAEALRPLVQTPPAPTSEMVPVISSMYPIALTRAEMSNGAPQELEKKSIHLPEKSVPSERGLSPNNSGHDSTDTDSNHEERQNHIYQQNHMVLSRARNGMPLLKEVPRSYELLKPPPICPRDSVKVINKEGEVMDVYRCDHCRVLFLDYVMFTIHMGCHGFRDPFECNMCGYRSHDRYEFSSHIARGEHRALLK
T2 sequence (Q96SW2 whole entry): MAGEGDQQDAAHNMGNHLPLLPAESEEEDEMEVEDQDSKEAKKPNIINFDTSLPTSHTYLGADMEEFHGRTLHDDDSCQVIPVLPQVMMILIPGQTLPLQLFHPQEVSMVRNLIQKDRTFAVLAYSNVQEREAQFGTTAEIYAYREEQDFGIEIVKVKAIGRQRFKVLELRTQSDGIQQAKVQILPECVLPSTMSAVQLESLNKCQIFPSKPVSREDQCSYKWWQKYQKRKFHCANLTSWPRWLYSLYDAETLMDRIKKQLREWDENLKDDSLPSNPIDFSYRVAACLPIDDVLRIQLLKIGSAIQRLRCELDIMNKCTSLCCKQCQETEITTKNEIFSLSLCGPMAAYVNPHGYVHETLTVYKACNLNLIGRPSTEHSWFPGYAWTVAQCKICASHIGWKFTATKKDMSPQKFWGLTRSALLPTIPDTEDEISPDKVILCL
T2 sequence (Q16531 whole entry partner): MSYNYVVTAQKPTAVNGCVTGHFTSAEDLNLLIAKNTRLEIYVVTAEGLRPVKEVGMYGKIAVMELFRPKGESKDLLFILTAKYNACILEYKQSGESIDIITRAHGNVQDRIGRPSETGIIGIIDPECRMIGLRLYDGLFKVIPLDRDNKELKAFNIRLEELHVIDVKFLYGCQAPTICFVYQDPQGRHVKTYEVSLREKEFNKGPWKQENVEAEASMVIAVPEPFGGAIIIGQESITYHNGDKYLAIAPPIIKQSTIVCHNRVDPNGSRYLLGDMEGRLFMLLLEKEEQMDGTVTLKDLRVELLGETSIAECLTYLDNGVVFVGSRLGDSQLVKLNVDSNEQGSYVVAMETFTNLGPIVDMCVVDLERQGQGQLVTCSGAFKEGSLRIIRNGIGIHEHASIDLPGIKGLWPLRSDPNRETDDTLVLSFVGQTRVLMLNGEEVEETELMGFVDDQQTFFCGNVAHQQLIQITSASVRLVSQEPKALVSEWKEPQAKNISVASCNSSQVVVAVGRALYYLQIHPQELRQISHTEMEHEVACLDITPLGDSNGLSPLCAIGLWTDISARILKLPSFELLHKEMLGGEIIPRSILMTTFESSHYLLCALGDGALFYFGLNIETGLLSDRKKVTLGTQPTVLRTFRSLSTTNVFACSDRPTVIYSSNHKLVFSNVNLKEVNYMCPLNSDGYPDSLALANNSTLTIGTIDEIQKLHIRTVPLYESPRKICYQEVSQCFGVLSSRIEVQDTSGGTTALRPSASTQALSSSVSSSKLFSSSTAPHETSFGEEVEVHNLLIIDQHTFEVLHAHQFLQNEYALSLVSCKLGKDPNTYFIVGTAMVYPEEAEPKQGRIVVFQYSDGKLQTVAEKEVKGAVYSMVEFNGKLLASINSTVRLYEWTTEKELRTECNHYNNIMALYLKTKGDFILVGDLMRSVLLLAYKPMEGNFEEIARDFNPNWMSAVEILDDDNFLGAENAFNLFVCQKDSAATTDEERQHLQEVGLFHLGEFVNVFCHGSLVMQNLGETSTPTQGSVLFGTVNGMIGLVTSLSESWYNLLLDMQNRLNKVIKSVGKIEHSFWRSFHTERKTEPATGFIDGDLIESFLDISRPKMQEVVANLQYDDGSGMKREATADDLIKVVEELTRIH
Protocol: as §1, §2

[1] = molecular target: T3, IRAK4 kinase protein in THP-1 cells (Homo sapiens, UniProt Q9NWZ3); assay: Degradation of IRAK4 in THP-1 cells by Western Blot; settings: 24 hours
T3 construct: endogenous in cells; host or cells: THP-1 cells
T3 sequence (Q9NWZ3 1-460): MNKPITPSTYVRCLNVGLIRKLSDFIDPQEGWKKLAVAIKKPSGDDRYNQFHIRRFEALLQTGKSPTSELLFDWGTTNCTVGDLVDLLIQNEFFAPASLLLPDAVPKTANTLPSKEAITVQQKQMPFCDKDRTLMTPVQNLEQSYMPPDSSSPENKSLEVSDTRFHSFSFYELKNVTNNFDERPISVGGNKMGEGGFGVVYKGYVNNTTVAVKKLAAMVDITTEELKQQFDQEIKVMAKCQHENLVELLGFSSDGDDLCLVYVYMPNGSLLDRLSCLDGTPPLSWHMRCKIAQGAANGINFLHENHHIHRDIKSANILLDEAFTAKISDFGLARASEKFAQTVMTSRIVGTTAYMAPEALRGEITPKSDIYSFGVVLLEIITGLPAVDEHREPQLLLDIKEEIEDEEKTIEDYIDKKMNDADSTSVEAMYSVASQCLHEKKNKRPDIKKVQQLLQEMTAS
Protocol: Each well of the 24-well cell culture plate was inoculated with 0.95 mL THP-1 cells (stem cell bank of Chinese academy of sciences) with a cell density of 5×10^5 cells/well. The cell plate was placed in a 5% carbon dioxide incubator and cultured overnight at 37° C., then 50 μL compound in dimethyl sulfoxide was added. The final concentration of the compound was in the range of 1-3000 nM. After continuous cultivation for 24 hours, the cells were collected into a 1.5 mL centrifuge tube, centrifuged at 1000 rpm and 4° C. for 5 minutes. Cell precipitation was washed twice with 1×DPBS, resuspended cells were lysed with 200 μL lysate (cell lysate was Western and IP cell lysate (Beyotime), supplemented with 1 mM mixture of phenylmethylsulfonyl fluoride and protease inhibitor (Beyotime)), left on ice for 30 minutes, then centrifuged at 14000 g at 4° C. for 10 minutes, and the supernatant was taken to detect IRAK4 protein level by Western blot.
The total protein concentration in the supernatant of cell lysis was determined by BCA protein quantitative kit (Tiangen). According to the concentration of total protein detected by BCA, the supernatant was adjusted to […] with PBS and 5×SDS-PAGE protein loading buffer (Beyotime), bathed in water at 100° C. for 10 minutes, then placed in ice bath for 5 minutes, centrifuged at 14000 g and 4° C. for 5 minutes, and then collected as WB loading sample. Prefabricated glue (KeyGEN) was used for protein electrophoresis with a loading amount of 10 μL (total protein 2 μg). After Tris-MOPS-SDS electrophoresis solution (Adamas), 120V constant pressure electrophoresis was performed. After electrophoresis, the protein on the adhesive strip was transferred to PVDF membrane with a constant current of […] for 50 minutes. After the membrane was transferred, the membrane was added in 1×QuickBlock blocking buffer (Beyotime) and incubated for 30 minutes at room temperature. After blocking, PVDF membranes were incubated with IRAK4 primary antibody (Abcam) overnight at 4°, the membranes were washed with TBST buffer (2.4 g Tris, 8.8 g NaCl, 1.5 mL Tween 20, pH adjusted to 7.4, constant volume to 1 L) for 30 minutes, incubated with secondary antibody (Abcam) for 2 hours at room temperature, finally incubated with Clarity Western ECL Substrate (BIO-RAD) for 5 minutes for luminescence development, chemiluminescence imaging system (Clinx, chemiScope 6200 Touch) was used for development and protein mapping photography. The protein map was analyzed by Clinx chemiluminescence analysis software for grayscale values. Using the formula: grayscale correction value=(target protein grayscale value/corresponding internal reference grayscale value)×[…], the grayscale correction value of each sample was calculated. The degradation rate was calculated by comparing with the grayscale correction value of the control group. Furthermore, DC50 and Dmax values of the compound were obtained by the nonlinear curve fitting with the logarithmic concentration-inhibition rate by GraphPad Prism 7.

T1 sequence (Q13422 whole entry): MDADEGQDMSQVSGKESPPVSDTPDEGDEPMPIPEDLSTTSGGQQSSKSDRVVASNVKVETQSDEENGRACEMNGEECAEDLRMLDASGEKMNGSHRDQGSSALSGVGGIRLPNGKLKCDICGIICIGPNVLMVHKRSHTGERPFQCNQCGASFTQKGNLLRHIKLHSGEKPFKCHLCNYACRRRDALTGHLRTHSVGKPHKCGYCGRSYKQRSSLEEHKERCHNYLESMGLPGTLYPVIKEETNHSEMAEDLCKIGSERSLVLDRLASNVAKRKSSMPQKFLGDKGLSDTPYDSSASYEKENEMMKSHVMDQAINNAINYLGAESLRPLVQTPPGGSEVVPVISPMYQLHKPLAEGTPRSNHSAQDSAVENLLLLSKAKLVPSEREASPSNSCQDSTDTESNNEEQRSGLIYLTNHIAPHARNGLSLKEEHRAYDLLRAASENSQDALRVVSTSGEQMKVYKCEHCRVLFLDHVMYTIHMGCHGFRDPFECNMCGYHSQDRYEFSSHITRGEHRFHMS
T1 sequence (Q96SW2 whole entry): as the sequence (Q96SW2 whole entry) above
T1 sequence (Q16531 whole entry partner): as the sequence (Q16531 whole entry partner) above

With `CC(C)(O)c1cc2nn(C3CCN(CCCC4CCN(c5ccc6c(c5)C(=O)N(C5CCC(=O)NC5=O)C6=O)CC4)CC3)cc2cc1NC(=O)c1cccc(C(F)(F)F)n1` (stereo not drawn) [Example 6, N-(2-(1-(3-(1-(2-(2,6-dioxopiperidin-3-yl)-1,3-dioxoisoindolin-5-yl)piperidin-4-yl)propyl)piperidin-4-yl)-6-(2-hydroxyprop-2-yl)-2H-indazol-5-yl)-6-(trifluoromethyl) pyridinecarboxamide] the “IKZF1 degradation rate (%)” value (IKZF1) was 26.7 ± 2.4%, the “IKZF3 degradation rate (%)” value (IKZF3) was 8.4 ± 6.0% and the DC50 ([1]; IRAK4 degradation in THP-1 cells, read-out: WB DC50) was 11.9 nM. For the same molecule, the Dmax ([1]; IRAK4 degradation in THP-1 cells, read-out: WB Dmax) was 90.9%, the “WB D(%) (300 nM)” value ([1]; degradation percentage of IRAK4 in THP-1 cells, compound 300 nM) was 89.5% and the “WB D(%) (1000 nM)” value ([1]; degradation percentage of IRAK4 in THP-1 cells, compound 1000 nM) was 87.3%.
